Where “and” joins values, the source holds several entries; their conditions need not be identical. Equal values may be shown once.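 Where inhibition never reached the appropriate level, the endpoint shown equals the highest concentration tested. Otherwise, values were interpolated linearly from a five-concentration, 48-hour dose response in 96-well plates. Abbreviation: GI50, concentration required for 50% inhibition of growth. The concentration for full growth arrest is given as TGI.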
Tests used:
Assay in all cases: NCI-60 cell line screen, 48 h
COLO 205 colon = tested on: COLO 205 colon
KM12 colon = tested on: KM12 colon
MOLT-4 leukemia = tested on: MOLT-4 leukemia
NCI-H23 lung = tested on: NCI-H23 lung
OVCAR-4 ovarian = tested on: OVCAR-4 ovarian
SF-539 CNS = tested on: SF-539 CNS
SK-MEL-5 melanoma = tested on: SK-MEL-5 melanoma
SK-OV-3 ovarian = tested on: SK-OV-3 ovarian
TK-10 renal = tested on: TK-10 renal
HOP-62 NSCLC = tested on: HOP-62 NSCLC

Cc1cccc(C)c1NC(=O)CCC/C(CC(=O)c1ccc(F)cc1)=N\NC(=O)C(=O)NN was tested. Which TGI (COLO 205 colon) did it give?
The TGI was greater than 100 µM.

What about the TGI (KM12 colon) of the same molecule?
Its TGI is greater than 100 µM.

And the TGI (MOLT-4 leukemia)?
Its TGI is greater than 100 µM.

And the TGI (NCI-H23 lung)?
Its TGI is greater than 100 µM.

What about the TGI (OVCAR-4 ovarian) of the same molecule?
Its TGI is greater than 100 µM.

What about the TGI (SF-539 CNS) of the same molecule?
The TGI was greater than 100 µM.

What about the TGI (SK-MEL-5 melanoma) of the same molecule?
Its TGI is greater than 100 µM.

What about the TGI (SK-OV-3 ovarian) of the same molecule?
The TGI was greater than 100 µM.

And the TGI (TK-10 renal)?
The TGI was greater than 100 µM.

With CCOC(=O)C1C=C2O[C@@H]3OC4(CCCCC4)O[C@@H]3C2C2C(=O)CCC(=O)[C@@]12C(=O)OC (stereo not given in full) as the molecule, how does the TGI (COLO 205 colon) read?
The TGI was greater than 100 µM.

What about the TGI (HOP-62 NSCLC) of the same molecule?
Its TGI is greater than 100 µM.

And the TGI (KM12 colon)?
The TGI was greater than 100 µM.

And the TGI (MOLT-4 leukemia)?
The TGI was greater than 100 µM.

What about the TGI (NCI-H23 lung) of the same molecule?
The TGI was greater than 100 µM.

What about the TGI (OVCAR-4 ovarian) of the same molecule?
Its TGI is greater than 100 µM.

And the TGI (SK-MEL-5 melanoma)?
The TGI was greater than 100 µM.

What about the TGI (SK-OV-3 ovarian) of the same molecule?
Its TGI is greater than 100 µM.

Which TGI (COLO 205 colon) does the source give for Nc1ccc(-c2cc(C(=O)Nc3nccs3)[nH]c(=S)n2)cc1 here?
Its TGI is greater than 100 µM.

And the TGI (KM12 colon)?
Its TGI is greater than 100 µM.

What about the TGI (MOLT-4 leukemia) of the same molecule?
The TGI was greater than 100 µM.

And the TGI (NCI-H23 lung)?
The TGI was greater than 100 µM.

And the TGI (OVCAR-4 ovarian)?
The TGI was greater than 100 µM.

And the TGI (SF-539 CNS)?
The TGI was greater than 100 µM.

And the TGI (SK-MEL-5 melanoma)?
The TGI was greater than 100 µM.

And the TGI (SK-OV-3 ovarian)?
The TGI was greater than 100 µM.

What about the TGI (TK-10 renal) of the same molecule?
Its TGI is greater than 100 µM.

Which GI50 (COLO 205 colon) does the source give for CN1CCN(c2ccc(OC(F)(F)F)c(Nc3ncc4c(n3)-c3c(c(C(N)=O)nn3CCO)CC4)c2)CC1 here?
The GI50 was 0.0255 µM and 0.0275 µM.

And the GI50 (HOP-62 NSCLC)?
Its GI50 is 0.0723 µM and 0.0547 µM.

What about the TGI (HOP-62 NSCLC) of the same molecule?
The TGI was 27.1 µM and > 10 µM.

And the GI50 (KM12 colon)?
The GI50 was 0.0328 µM and 0.0354 µM.

And the TGI (KM12 colon)?
The TGI was 35.4 µM and > 10 µM.

And the GI50 (MOLT-4 leukemia)?
The GI50 was 0.0349 µM and 0.0615 µM.

And the TGI (MOLT-4 leukemia)?
The TGI was 18.5 µM and > 10 µM.

And the GI50 (NCI-H23 lung)?
Its GI50 is 0.0397 µM and 0.0732 µM.

What about the TGI (NCI-H23 lung) of the same molecule?
Its TGI is 17.6 µM and > 10 µM.

And the GI50 (OVCAR-4 ovarian)?
Its GI50 is 6.92 µM and 1.39 µM.

And the TGI (OVCAR-4 ovarian)?
Its TGI is 41.2 µM and > 10 µM.

What about the GI50 (SF-539 CNS) of the same molecule?
The GI50 was 0.0363 µM and 0.0682 µM.

What about the TGI (SF-539 CNS) of the same molecule?
The TGI was 12.4 µM and > 4.8 µM.

And the GI50 (SK-MEL-5 melanoma)?
Its GI50 is 0.106 µM and 0.309 µM.

And the TGI (SK-MEL-5 melanoma)?
The TGI was 16.7 µM and > 10 µM.

And the GI50 (SK-OV-3 ovarian)?
The GI50 was 0.108 µM and 0.124 µM.

What about the TGI (SK-OV-3 ovarian) of the same molecule?
The TGI was 30.6 µM and > 10 µM.

With O=C1N2Cc3c4ccc5c3CN3C(=O)N6Cc7c(ccc(c7CN1C6(c1ccccc1)C23c1ccccc1)OCCOCCOc1cc(Br)c(Br)cc1OCCOCCO4)OCCOCCOc1cc(Br)c(Br)cc1OCCOCCO5 (stereo not given) as the molecule, how does the TGI (HOP-62 NSCLC) read?
The TGI was greater than 100 µM.

What about the TGI (KM12 colon) of the same molecule?
Its TGI is greater than 100 µM.

And the TGI (MOLT-4 leukemia)?
The TGI was greater than 100 µM.

What about the TGI (NCI-H23 lung) of the same molecule?
Its TGI is greater than 100 µM.

And the TGI (OVCAR-4 ovarian)?
Its TGI is greater than 100 µM.

And the TGI (SF-539 CNS)?
Its TGI is 37.9 µM.

What about the TGI (SK-MEL-5 melanoma) of the same molecule?
The TGI was greater than 100 µM.

And the TGI (SK-OV-3 ovarian)?
Its TGI is greater than 100 µM.

And the TGI (TK-10 renal)?
Its TGI is greater than 100 µM.

For C/C(=N\NC(=O)C[N+](C)(C)C)c1sc(-c2cccnc2)nc1C, which TGI (COLO 205 colon) is on record?
Its TGI is greater than 100 µM.

And the TGI (HOP-62 NSCLC)?
The TGI was greater than 100 µM.

And the TGI (KM12 colon)?
Its TGI is greater than 100 µM.

What about the TGI (MOLT-4 leukemia) of the same molecule?
The TGI was greater than 100 µM.

And the TGI (NCI-H23 lung)?
Its TGI is greater than 100 µM.

And the TGI (SF-539 CNS)?
Its TGI is greater than 100 µM.

And the TGI (SK-MEL-5 melanoma)?
The TGI was greater than 100 µM.

And the TGI (SK-OV-3 ovarian)?
Its TGI is greater than 100 µM.

And the TGI (TK-10 renal)?
The TGI was greater than 100 µM.

What does the source list for Cc1ccc(S(=O)(=O)N/N=C(\c2nc3ccc([N+](=O)[O-])cc3[nH]c2=O)C(O)c2ccc([N+](=O)[O-])cc2)cc1 (stereo not given)?
TGI (COLO 205 colon): > 100 µM; TGI (HOP-62 NSCLC): > 100 µM; TGI (MOLT-4 leukemia): > 100 µM; TGI (NCI-H23 lung): > 100 µM; TGI (OVCAR-4 ovarian): > 100 µM; TGI (SF-539 CNS): > 100 µM; TGI (SK-MEL-5 melanoma): > 100 µM; TGI (SK-OV-3 ovarian): > 100 µM; TGI (TK-10 renal): > 100 µM

What does the source list for O=C1C(=C2CCCC2)CCC1CN1CCCCC1 (stereo not given)?
TGI (COLO 205 colon): 73.5 µM; TGI (KM12 colon): 39.7 µM; TGI (MOLT-4 leukemia): 41.9 µM; TGI (NCI-H23 lung): 36.4 µM; TGI (OVCAR-4 ovarian): 30.3 µM; TGI (SF-539 CNS): 50.1 µM; TGI (SK-MEL-5 melanoma): 34.1 µM; TGI (TK-10 renal): 27.1 µM

Which TGI (COLO 205 colon) does the source give for CC(C)(C)OP(=O)(OC(C)(C)C)C(O)c1ccc(/C=C(\C#N)C(N)=O)cc1 (stereo not given) here?
The TGI was greater than 100 µM.

And the TGI (HOP-62 NSCLC)?
The TGI was greater than 100 µM.

And the TGI (KM12 colon)?
Its TGI is greater than 100 µM.

And the TGI (MOLT-4 leukemia)?
Its TGI is greater than 100 µM.

And the TGI (NCI-H23 lung)?
Its TGI is greater than 100 µM.

What about the TGI (OVCAR-4 ovarian) of the same molecule?
The TGI was greater than 100 µM.

And the TGI (SF-539 CNS)?
Its TGI is greater than 100 µM.

What about the TGI (SK-OV-3 ovarian) of the same molecule?
The TGI was greater than 100 µM.

What about the TGI (TK-10 renal) of the same molecule?
Its TGI is greater than 100 µM.

For COc1ccc(/C(C)=N/NC(=O)CSc2nc3ccccc3c(=O)n2CCc2ccc(S(N)(=O)=O)cc2)cc1, which GI50 (KM12 colon) is on record?
Its GI50 is 2.06 µM.

What about the TGI (KM12 colon) of the same molecule?
Its TGI is 3.96 µM.

What about the GI50 (MOLT-4 leukemia) of the same molecule?
Its GI50 is 4.2 µM.

And the TGI (MOLT-4 leukemia)?
The TGI was 84.2 µM.

And the GI50 (NCI-H23 lung)?
The GI50 was 2.3 µM.

What about the TGI (NCI-H23 lung) of the same molecule?
The TGI was 5.81 µM.

And the GI50 (OVCAR-4 ovarian)?
The GI50 was 1.77 µM.

And the TGI (OVCAR-4 ovarian)?
The TGI was 3.52 µM.

What about the GI50 (SF-539 CNS) of the same molecule?
Its GI50 is 1.69 µM.

What about the TGI (SF-539 CNS) of the same molecule?
Its TGI is 3.16 µM.

What about the GI50 (SK-MEL-5 melanoma) of the same molecule?
The GI50 was 1.64 µM.

What about the TGI (SK-MEL-5 melanoma) of the same molecule?
Its TGI is 3.06 µM.

What about the GI50 (TK-10 renal) of the same molecule?
The GI50 was 1.95 µM.

What about the TGI (TK-10 renal) of the same molecule?
The TGI was 3.98 µM.

For OB(O)c1ccccc1C#Cc1ccccc1B(O)O, which TGI (COLO 205 colon) is on record?
Its TGI is 35.1 µM.

And the TGI (HOP-62 NSCLC)?
The TGI was 83.9 µM.

And the TGI (KM12 colon)?
The TGI was 49 µM.

And the TGI (MOLT-4 leukemia)?
The TGI was greater than 100 µM.

What about the TGI (NCI-H23 lung) of the same molecule?
The TGI was 90.9 µM.

And the TGI (SF-539 CNS)?
The TGI was 44.9 µM.

What about the TGI (SK-MEL-5 melanoma) of the same molecule?
The TGI was 31.9 µM.

What about the TGI (SK-OV-3 ovarian) of the same molecule?
Its TGI is greater than 100 µM.

And the TGI (TK-10 renal)?
Its TGI is 53.2 µM.
